One test relates to VP14 gene. Nature of the test: expression of VP14 stress gene in intact maize plants (RT-PCR). In kind it is in vivo, Zea mays. Conditions: 5 μM. Here is the method: Abscisic acid has a direct effect on up-regulation of genes involved in stress responses (Tan et al., 1997, Proc Natl Acad Sci USA, 94, 12235-40). 5-days-old maize seedlings were carefully transferred from substrate to nutrient solution supplemented with tested compound in 5 μM concentration and were cultivated for another 3 days. Transcript copy number of VP14 gene was determined in roots and leaves of treated plants independently by method of reverse transcription polymerase chain reaction.

Test [1] has as its system detached leaf segments of Triticum aestivum cv. Hereward. The test is described as follows: senescence bioassay on detached wheat leaf segments in dark conditions (chlorophyll retention). On the procedure:
(§1) Seeds of winter wheat, Triticum aestivum cv. Hereward, were washed under running water for 24 hours and then sown on vermiculite soaked with Knop's solution. They were placed in the growth chamber at 25° C. with a 16/8 h light period at 50 μmol·m^−2·s^−1. After 7 days, the first leaf was fully developed and the second leaf had started to grow. A tip section of the first leaf, approximately 35 mm long, was removed from 5 seedlings and trimmed slightly to a combined weight of 100 mg. The basal ends of the five leaf tips were placed in the wells of a microtiter polystyrene plate containing 150 μL of the tested derivative solution each. The entire plate was inserted into a plastic box lined with paper tissues soaked in distilled water to prevent leaf sections from drying out. After 96 h incubation in the dark at 25° C., the leaves were removed and chlorophyll extracted by heating at 80° C. for 10 min in 5 mL of 80% ethanol (v/v). The sample volume was then restored to 5 mL by the addition of 80% ethanol (v/v). The absorbance of the extract was recorded at 665 nm. In addition, chlorophyll extracts from fresh leaves and leaf tips incubated in deionised water were measured. The results are means of five replicates and the entire test was repeated twice. […] The compounds to be tested were dissolved in dimethylsulfoxide (DMSO) and the solution brought up to 10^−3M with distilled water. […] The activity obtained for 10^−4 M Kin was postulated as 100%.

Test [2] has as its system cytokinin-dependent tobacco callus Nicotiana tabacum L. cv. Wisconsin 38. Nature of the test: cytokinin-dependent tobacco callus bioassay (plant cell division). It is filed as cell-based. On the procedure: Stimulatory effect of newly prepared derivatives was tested using cytokinin-dependent tobacco callus. The cytokinin-dependent tobacco callus Nicotiana tabacum L. cv. Wisconsin 38 was maintained at 25° C. in darkness on modified MS medium, containing per 1 liter: 4 μmol of nicotinic acid, 2.4 μmol of pyridoxine hydrochloroide, 1.2 μmol of thiamine, 26.6 μmol of glycine, 1.37 μmol of glutamine, 1.8 μmol of myo-inositol, 30 g of sucrose, 8 g of agar, 5.37 μmol of NAA and 0.5 μmol of the compound tested. Subcultivation was carried out every three weeks. Fourteen days before the bioassay, the callus tissue was transferred to the media without the compound tested. The biological activity was determined from the increase of the fresh callus weight after four weeks of cultivation. Six replicates were prepared for each concentration of the compound tested and the entire test was repeated twice. […] The compounds to be tested were dissolved in dimethylsulfoxide (DMSO) and the solution brought up to 10^−3 M with distilled water. […] From the obtained data, the concentration with the highest activity was selected for each compound tested. Relative activity of the compound at this concentration was calculated (Table 2). The activity obtained for 10^−6 M of the N9-unsubstituted parent cytokinins Kin and 10^−5 M iP, respectively, was postulated as 100% biological activity. […] For comparison, compounds bearing halogenbutyl substituent in position 9 were prepared and tested.
Cytokinins are known to have stimulatory effects on cell proliferation in their optimal concentrations, however typically in the concentrations exceeding 10 μM their effect on cell division turns into inhibitory (Holub et al., Plant Growth Regul. 26, 109-115, 1998). Therefore the effect of the high concentrations of the newly prepared derivatives was tested using cytokinin-dependent tobacco callus described in Example 6. The novel compounds 1, 2 and 4 were tested in high concentrations (1-100 μM) and the activities were compared with activities of their N9-unsubstituted parent cytokinins.

Test [3] has as its system Zea mays cv. CELLUX seedlings. The test is described as follows: root growth and development of maize seedlings in hydroponics. It is filed as in vivo. Conditions: FIG. 3. Here is the method:
To investigate in vivo effect of the new derivatives on the root growth and development, maize seeds (Zea mays cv. CELLUX, Morseva, Czech Republic) were imbibed in tap water and germinated in dark on a wetted filter paper. After 2 days, the germinated seedlings were transferred to aerated hydroponic tanks filled with Hoagland's nutrient solution (fifteens per one liter of Hoagland solution). The plants were grown in a chamber with 16 hrs light (250 μm-2 s-1) at 27° C. and 8 hrs dark period at 20° C. The nutrient solution was supplemented with 5 μM and 10 μM concentration of 6-furfurylamino-9-(2-chloroethyl)purine or 5 μM cytokinin kinetin (Kin). All solutions used for cytokinin treatment including negative control contained DMSO in final concentration of 0.01%.

The test system of test [4] is detached leaf segments of Triticum aestivum cv. Hereward. Nature of the test: senescence bioassay on detached wheat leaf segments in light conditions (chlorophyll retention). On the procedure:
as §1
The ability of the novel compounds to retard chlorophyll degradation in detached wheat leaves was tested also in the light conditions. The experiment was performed as described in Example 7 with modifications as follows—the incubation of the leaves with the compounds was done in the constant light (100 μmol·m^−2·s^−1) at 22° C.

For test [5], the system named is membrane lipid peroxidation in detached leaves of Triticum aestivum cv. Hereward. The test is described as follows: membrane lipid peroxidation (MDA, TBA method) in detached wheat leaves during dark senescence. On the procedure:
A typical symptom associated with senescence as a direct consequence of increased reactive oxygen species is lipid peroxidation. Therefore the levels of MDA, a decomposition product of lipid peroxidation, were measured in detached wheat leaves that were exposed to the prepared novel derivatives and kinetin for four days in the dark as described in Example 7. MDA levels were measured using a thiobarbituric acid (TBA) method. In detail, 100 mg of fresh plant material was homogenized by high speed shaking in a ball mill (MM301, Retsch, Germany) with 1 mL of 80% methanol. The crude extract was centrifuged at 10,000×g for 5 min, and 100 μL aliquot of supernatant was vortexed with 100 μL of 0.5% (w/v) TBA containing 0.1% (w/v) trichloroacetic acid, and the resulting solution was then incubated for 30 min at 95° C. The samples were quickly cooled on ice and recentrifuged for 5 min at 1000×g. The absorbance of supernatant was measured at 532 nm with background subtraction at 600 nm and the amount of MDA-TBA complex was calculated from the coefficient of absorbance 155 mM^−1 cm^−1.

Setting [6] is: 3 days, related to untreated control = 1.

For `ClCCn1cnc2c(NCc3ccco3)ncnc21` [Compound 1, 6-furfurylamino-9-(2-chloroethyl)purine], in the test with VP14 gene (setting [6]), the “Relative amount of transcripts, leaf” value is recorded as 1.1 (±0.3). For the same compound, the “Relative amount of transcripts, root” value with VP14 gene (setting [6]) was 0.4 (±0.1). In the test with VP14 gene (in words), the “effect on VP14 expression / stress response” value is “does not induce any stress response”. The “concentration with highest activity” value in test [1] (96 h, 25° C., chlorophyll A665) is on record as 10^−4 mol. l^−1; in test [4] (constant light 100 μmol·m^−2·s^−1, 22° C.) it was 10^−5 mol. l^−1. Moreover, the “activity (%) [10^−4 mol. l^−1 Kin = 100%]” value was 120 (±15) % in test [1] (at the concentration with highest activity) and 116 (±7) % in test [4] (light, at the concentration with highest activity). In addition, in test [2] (at the concentration with highest activity, relative to 10^−6 M Kin), the “activity (%) [10^−6 mol. l^−1 Kin = 100%]” value was 120 (±6) %. In test [2] (concentrations exceeding 10 μM, up to 100 μM, FIG. 1), the “effect on callus growth (cell proliferation) in high concentrations” value was “still kept their stimulatory effect”. The “root and shoot phenotype of maize plants” value in test [3] (5 μM in nutrient solution) is “almost identical to DMSO treated negative control”; in test [3] (10 μM in nutrient solution), “only slightly reduced length of primary and lateral roots”. Moreover, the “level of membrane lipid peroxidation reduced to” value in test [5] (dark senescence, compared to untreated control) was determined as 67%. Moreover, the MDA in test [5] (detached wheat leaves, four days in the dark, untreated control 18.9 (±2.2)) is listed as 12.8 (±1.0) nmol/g FW.

The record behind these values is patent US9220269B2, “Use of 6-substituted 9-halogenalkyl purines for regulation of growth and development of whole plants, plant cells and plant organs; novel 6-substituted 9-halogenalkyl purines” (UNIVERZITA PALACKEHO V OLOMOUCI, priority 2010, dated 2015).
